Source: patent US6372208B1, “Method of reducing an immune response to a recombinant virus” (The Trustees of the University of Pennsylvania, priority 1996, dated 2002)
Read-outs that look alike come from different tables or passages of the source.

Key:
[1] = system: E1-deleted adenovirus (H5.010CMVlacZ, H5.010CBALP)
[2] = system: recombinant adenoviruses H5.010CBALP and H5.010CMVlacZ; assay: Lung-directed adenovirus gene transfer and readministration, transgene expression by histochemistry (Example 2); type: in vivo, C57BL/6 mice; details: lung, readministered day 28, read day 31
Procedure: Female C57BL/6 mice (6˜8 week old) were infected with suspensions of H5.010CBALP (1×10^9 pfu in 50 μl of PBS) via the trachea at day 0 and similarly with H5.010CMVlacZ at day 28. One group of such mice was used as a control. Another group of mice were acutely depleted of CD4^+ cells by i.p. injection of antibody to CD4^+ cells (GK1.5; ATCC No. TIB207, 1:10 dilution of ascites) at the time of the initial gene therapy (days −3, 0, and +3). A third group of mice was injected with IL-12 (1 μg intratracheal or 2 μg, i.p. injections) at the time of the first administration of virus (days 0 and +1). A fourth group of mice was injected with gamma interferon. (1 μg intratracheal or 2 μg, i.p. injections) at the time of the first administration of virus (days 0 and +1).
When mice were subsequently euthanized and necropsied at days 3, 28, or 31, lung tissues were prepared for cryosections, while bronchial alveolar lavage (BAL) and mediastinal lymph nodes (MLN) were harvested for immunological assays.
The lung tissues were evaluated for ALP expression at day 3 and day 28 by histochemical staining following the procedures of Yang I, cited above. β-galactosidase expression was assayed at day 31 by X-gal histochemical staining. The results described below were obtained from the alkaline phosphatase histochemical stains (magnification ×100) or β-galactosidase X-gal stains (magnification ×100).

[3] = system: recombinant adenoviruses H5.010CBALP and H5.010CMVlacZ; assay: Liver-directed adenovirus gene transfer and readministration (Example 3); type: in vivo, C57BL/6 mice; details: liver, readministered day 28, read day 31
Procedure: Experiments substantially identical to those described in Example 2 above were conducted in which viral vectors were administered into the blood for introduction of the transgene into the liver (rather than intratracheal delivery into the lung).
Female C57BL/6 mice (6-8 weeks old) were injected with suspensions of H5.010CBALP (1×10^9 pfu in 50 μl of PBS) i.p. at day 0 and similarly with H5.010CMVlacZ at day 28. One group of such mice was used as a control. Another group of mice was acutely depleted of CD4^+ cells by i.p. injection of antibody to CD4^+ cells (GK1.5; ATCC No. TIB207, 1:10 dilution of ascites) at the time of the initial gene therapy (days −3, 0, and +3). A third group of mice was injected with IL-12 (2 μg, i.p. injections) at the time of the first administration of virus (days 0 and +1). A fourth group of mice was injected with gamma interferon (2 μg, i.p. injections) at the time of the first administration of virus (days 0 and +1) .
When mice were subsequently euthanized and necropsied at days 3, 28, or 31, liver tissues were prepared for cryosections according to the procedures used above for lung tissue in Example 2.
The cryosection results were substantially similar for liver-directed gene therapy according to this method as for the lung-directed therapy of Example 2 above. The results described below were obtained from the alkaline phosphatase histochemical stains (magnification ×100) or β-galactosidase X-gal stains (magnification ×100).

H5.010CBlacZ = assay: Adenovirus-specific IgG and IgA in BAL by ELISA; type: in vivo, C57BL/6 mice; details: day 28, versus control mice
Procedure: Adenovirus-specific antibody isotype was determined in BAL by using an enzyme-linked immunosorbent assay (ELISA). Briefly, 96-well plates were coated with 100 μl of PBS containing 5×10^9 particles of H5.010CBlacZ for 18 hours at 4° C. The wells were washed 5 times with PBS. After blocking with 200 μl of 2% BSA in PBS, the plates were rinsed once with PBS and incubated with 1:10 diluted BAL samples for 90 minutes at 4° C. Thereafter, the wells were extensively washed and refilled with 100 μl of 1:1000 diluted ALP-conjugated anti-mouse IgG or IgA (Sigma). The plates were incubated, subsequently washed 5 times, and 100 μl of the substrate solution (p-nitrophenyl phosphate, PNPP) was added to each well. Substrate conversion was stopped by the addition of 50 μl of 0.1M EDTA, and reactions were read at 405 nm.
(§1) The results are shown graphically in FIGS. 1A through 1C, which summarize neutralizing antibody titer, and the relative amounts (OD405) of IgG and IgA present in BAL samples.

[4] = system: human Ad5 recombinant vector; assay: Neutralizing antibody to adenovirus in BAL (Hela cell lacZ transduction); type: in vivo, C57BL/6 mice; details: day 28, versus control mice
Procedure: BAL samples obtained from animals 28 days after primary exposure to recombinant virus were evaluated for neutralizing antibodies to adenovirus and anti-adenovirus antibody isotypes as follows. The same four groups of C57BL/6 mice, i.e., control, CD4^+ depleted, IL-12 treated and IFN-γ treated, were infected with H5.010BALP. Neutralizing antibody was measured in serially-diluted BAL samples (100 μl) which were mixed with H5.010CBlacZ (1×10^6 pfu in 20 μl), incubated for 1 hour at 37° C., and applied to 80% confluent Hela cells in 96 well plates (2×10^4 cells per well). After 60 minutes of incubation at 37° C., 100 μl of DMEM containing 20% FBS was added to each well. Cells were fixed and stained for β-galactosidase expression the following day.
as §1

Row | Compound | transgene expression ([1]; liver) | formation of neutralizing antibody ([1]; liver, at higher doses) | vector readministration ([1]; liver, at higher doses) | CD4 and CD8 T helper cell activation to adenovirus capsid protein ([1]; liver, short course at the time of virus delivery) | formation of neutralizing antibodies ([1]; lung) | transgene expression ([1]; lung) | gene transfer upon second administration of virus (lacZ) [2] | gene transfer upon second administration of virus (lacZ) [3] | virus specific IgA in BAL (H5.010CBlacZ) | neutralizing antibody in BAL [4]
1 | O=P1(N(CCCl)CCCl)NCCCO1 (stereo not shown) [cyclophosphamide] | transgene expression was prolonged | formation of neutralizing antibody was prevented | allowing successful vector readministration | successfully interrupt both CD4 and CD8 T helper cell activation | prevented formation of neutralizing antibodies at all doses | stabilized transgene expression at high dose |  |  |  | 
2 | gamma interferon [IFN-γ] |  |  |  |  |  |  | efficient gene transfer was accomplished upon a second administration of virus | efficient gene transfer was accomplished upon a second administration of virus | decreased as compared to the control animals not treated with cytokine, but not to the extent obtained with those treated with IL-12 | decreased as compared to the control animals not treated with cytokine, but not to the extent obtained with those treated with IL-12
